For this assay, the system named is endophthalmitis. Description: Combination therapy treatment of severe endophthalmitis in a human subject (case report). Type of assay: in vivo. As to conditions: initial regimen without cyclosporin A: intravitreal Vancomycin and Ceftazidime, then Ceftazidime, Vancomycin and Prednisolone eye drops every two hours; over the next two days. Here is the method:
A uniocular subject was diagnosed with severe endophthalmitis in their only functioning eye. […] The subject was treated with an aggressive treatment regimen of antibiotics (Intra Vitreal injection of Vancomycin and Ceftazidime) followed by Ceftazidime eye drops. Vancomycin eye drops and steroid Prednisolone eye drops every two hours.
Cyclosporin A (sold as […]® from Allergan, Inc.) was added to the treatment regimen and was administered prior to administering the antibiotic and steroid eye drops.
The Ceftriaxone was added to the regimen to increase the aggressiveness of the therapy with the goal of preventing or eliminating any traces of infection in the retina, which can result in irreversible blindness.
In the case of `CC(C)(O/N=C(\C(=O)N[C@@H]1C(=O)N2C(C(=O)[O-])=C(C[n+]3ccccc3)CS[C@H]12)c1csc(N)n1)C(=O)O` [Ceftazidime], the “improvement of the subject” value is “no improvement”.
With `CN[C@H](CC(C)C)C(=O)N[C@H]1C(=O)N[C@@H](CC(N)=O)C(=O)N[C@H]2C(=O)N[C@H]3C(=O)N[C@H](C(=O)N[C@H](C(=O)O)c4cc(O)cc(O)c4-c4cc3ccc4O)[C@H](O)c3ccc(c(Cl)c3)Oc3cc2cc(c3O[C@@H]2O[C@H](CO)[C@@H](O)[C@H](O)[C@H]2O[C@H]2C[C@](C)(N)[C@H](O)[C@H](C)O2)Oc2ccc(cc2Cl)[C@H]1O` [Vancomycin], the “improvement of the subject” value is “no improvement”.
In the case of `C[C@]12C=CC(=O)C=C1CC[C@@H]1[C@@H]2[C@@H](O)C[C@@]2(C)[C@H]1CC[C@]2(O)C(=O)CO` [Prednisolone] it was “no improvement”.

The values above are taken from US20150111833A1, “Method Of Treating An Ocular Disease And Compositions Effective For Treating An Ocular Disease” (Howard University, priority 2012, published 2015).
